{"source": "patent US20060069038A1", "about": "“Irreversible caspase-3 inhibitors as active site probes” (priority 2003, published 2006)", "target": "T1, caspase-3 (Rattus norvegicus, UniProt P55213)", "T1 construct": "endogenous in cells; host or cells: primary rat thymocytes (Sprague-Dawley), spontaneous apoptosis in culture", "T1 sequence (P55213 29-175 limits assumed)": "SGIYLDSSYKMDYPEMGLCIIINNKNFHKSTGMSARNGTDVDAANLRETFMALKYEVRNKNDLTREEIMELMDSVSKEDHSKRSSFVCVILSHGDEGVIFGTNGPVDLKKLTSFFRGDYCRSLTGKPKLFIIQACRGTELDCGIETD", "T1 sequence (P55213 176-277 limits assumed)": "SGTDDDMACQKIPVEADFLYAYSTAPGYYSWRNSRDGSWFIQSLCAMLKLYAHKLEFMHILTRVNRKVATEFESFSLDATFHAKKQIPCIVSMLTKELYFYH", "assay": "Caspase active site occupancy by [125I]-M808 labeling in whole rat thymocytes", "format": "cell-based", "protocol": "FIG. 5. Determination of caspase active site occupancy by M867 in cultured rat thymocytes. A-Theoretical calculations for the determination of the percentage of caspase-3 active sites occupied by M867 in whole cells. The total amount of caspase-3 p17 subunit is determined densitometrically by either Western blotting of saturation [^125I]-M808 labeling. Partial labeling of active caspases in whole cells is perforemd (see materials and methods). A graph of the p17 amount against partial [^125I]-M808 labeling signal in the absence of M867 (or other reversible caspase inhibitors) is plotted. The [^125I]-M808 signal expected from the measured p17 amount is estimated form this plot. The actual [^125I]-M808 signal (by partial labeling) in the presence of reversible inhibitor is measured. The ratio of actual [^125I]-M808 signal over expected [^125I]-M808 signal multiplied by 100=the percentage of caspase active sites unoccupied by an inhibitor. The percentage occupancy=100−% free active sites. B-C An actual determination of caspase active site occupancy by M867 in whole rat thymocytes. B-caspase-3 western blot. C-[^125I]-M808 signal from whole rat thymocytes exposed to increasing concentrations of M867. Comparison of M867 caspase inhibition potency (IC50) determined by DNA fragmentation inhibition and [^125I]-M808 labeling is also depicted. […]", "note": "Read-outs that look alike come from different tables or passages of the source."}
{"smiles": "CCCCCN(C)CC(=O)[C@H](CC(=O)O)NC(=O)[C@H](CC)n1cc(C(C)(C)C)nc(NCc2nonc2C)c1=O", "note": "[Example M867, (3S)-3-({(2S)-2-[5-tert-butyl-3-{[(4-methyl-1,2,5-oxadiazol-3-yl)methyl]amino}-2-oxopyrazin-1(2H)-yl]butanoyl}amino)-5-[methyl(pentyl)amino]-4-oxopentanoic acid]", "values": [{"measurement": "IC50", "setting": "five independent experiments, p=0.03 vs DNA fragmentation IC50, read-out: IC50 determined with M808", "result": 0.13, "unit": "µM"}, {"measurement": "IC50", "setting": "whole rat thymocytes, experiment of FIG. 5, read-out: IC50, occupancy of caspase by M867 ([125I]-M808 labeling)", "result": 0.14, "unit": "µM"}]}
